# Measured values: US9844546B2, “Antibody against human HIF hydroxylase” (OXFORD UNIVERSITY INNOVATION LIMITED, priority 2001, dated 2017)
# Read-outs that look alike come from different tables or passages of the source.
# Legend:
# [1] = system: HIF hydroxylase (HPH activity); assay: HIF hydroxylase (HPH) inhibition, statements of the description; type: biochemical
# [2] = system: HIF-α prolyl-hydroxylase (HIF-PH) of cell extract; assay: Modifying activity (HIF-PH) of cell extract on HIF substrate (Gal/HIF-1α549-582/VP16 or 19:WT), pVHL capture assay; type: biochemical, mammalian
# Procedure: The unlabelled HIF-1α substrate was immunopurified on beads, washed, and aliquots incubated under different test conditions in buffer or cell extract. After further washing, the beads were assayed for ability to interact with 35-S labelled pVHL IVTT (21) which was then visualised by fluorography.
# The capture of labelled pVHL by different HIF substrates was monitored after exposure to various test conditions.
# We went on to test a series of 2-oxoglutarate analogues which act as competitive inhibitors of this class of enzyme (29) for ability to inhibit HIF-PH as assessed by the ability of cell extracts to modify either HIF polypeptide (19:WT) or a HIF fusion protein (Gal/HIF-1α549-582/VP16) so as to promote pVHL capture. […] In one such experiment the effect of N-oxalylglycine on pVHL capture by a biotinylated HIF polypeptides as substrate was monitored. The WT:19 and 19:Pro564Hyp polypeptides described above were used as substrates. […] The effect of dimethyl-oxalyglycine on HIF-1α expression was also studied. HIF-1α immunoblot analysis of extracts of Hep3B and U2OS cells exposed to dimethyl-oxalylgylcine (0, 0.1 or 1.0 mM) for 6 hours was carried out. […]
# [3] = target: T1, HIF-1/VHL-1 interaction promoting activity of worm extract (Caenorhabditis elegans, UniProt G5EBV0); assay: Worm extract modification of C. elegans HIF-1, HA.VHL-1 interaction assay; type: biochemical; conditions: antagonized by 5 mM 2-OG
# T1 construct: from tissue; host or cells: whole-worm homogenate in hypotonic extraction buffer
# Procedure: Assays for interaction between recombinant VHL and HIF polypeptides conformed to the following experimental design. Recombinant VHL and HIF polypeptides were produced separately in vitro. The HIF polypeptide was then pre-incubated with extract or a recombinant enzyme as described below, then mixed with VHL and incubated in EBC buffer (50 mM Tris pH 7.5, 150 mM NaCl, 0.5% v/v Igepal, 0.5 mM EDTA) at 4° C. for 1 hour, before immunoprecipitation with anti HA antibodies (for HA tagged VHL) or anti Gal antibodies (for Gal4HIF fusions) and analysis by PAGE (Jaakkola et al. (2001) supra).
# Preincubation of C. elegans HIF-1 with worm extract or recombinant EGL-9 was for 30 min at 25° C. Preincubation of mammalian HIF-α polypeptides with cell extract or recombinant enzymes was at 37° C. for 10-30 min unless otherwise stated. For assays of recombinant enzymes, 2-oxoglutarate (2 mM), iron (100 μM), and ascorbate (2 mM) were added to the reaction buffer unless otherwise indicated. Reactions performed in hypoxia were in the stated atmospheric oxygen concentration (balance nitrogen) obtained using a controlled environment Invivo2 400 hypoxia work-station (Ruskinn Technologies) and buffers pre-equilibrated with the appropriate atmosphere. Reactions (50 μl) were performed in open Eppendorf tubes with mixing and stopped by the addition of 20 volumes desferrioxamine (100 μM}. […]
# clavaminate synthase = assay: Clavaminate synthase inhibition under standard assay conditions; type: biochemical, Streptomyces clavligerus
# Description: These are commonly methyl or ethyl esters although others are possible.
# U2OS cells = U2OS cells stably transfected with doxycycline-inducible NODD or CODD; type: cell-based, human; conditions: doxycycline 0.2-3.2 μg/ml, peaking after 48 hours
# Procedure: To explore further the therapeutic potential of NODD and CODD polypeptides to activate endogenous HIF we stably transfected U2OS cells with doxycycline-inducible NODD (doxNODD) and CODD constructs (doxCODD) encoding identical sequences to those used for transient transfections.
# Cells stably transfected with NODD or CODD controlled by the tetracycline-inducible system were exposed to doxycycline. Cell extracts were prepared 0, 16, 24 and 48 hours after exposure to doxycycline. The extracts of doxNODD (HIF-1α aa343-417), doxCODD (HIF-1α aa549-82) and control cells (empty vector) were then immunoblotted for HIF-1α protein. Increased HIF-1α signals were detected from 16-48 hours following doxycycline administration in doxNODD and doxCODD cells but not in empty vector cells. Levels of HIF-1α induced by hypoxia were also measured for comparison. The endogenous HIF-1α induction was doxycycline dose (0.2-3.2 μg/ml) and time dependent, peaking after 48 hours. Maximal levels were about 20% and about 70% of HIF-1α levels seen following hypoxic or DFO treatment of the doxNODD and doxCODD cells respectively. […]
# Stably transfected cell lines were generated by transfecting U2OS cells bearing the reverse tetracycline responsive transactivator ^34 and the tetKRAB silencer construct ^36 with pUHD/HIF plasmids. Following selection in G418 (1 mg/ml) individual colonies were picked. DoxNODD (F21) and doxCODD (myc19) clones expressed pUHD/HIF-1aa343-417/3NLS/c-myc and pUHD/HIF-1α aa549-82/3NLS/c-myc respectively. […]
# Cell extracts were prepared in buffer (8M urea, 10% glycerol, 1% SDS, 5 mM DTT, 10 mM Tris/pH 6.8), separated by SDS-PAGE and transferred to Immobilon-P membrane (Millipore). Primary antibodies against HIF-1α, c-myc tag and HA tag were from Transduction Laboratories, Innogenex and Roche Molecular respectively. […]
# VHL E3 ubiquitin ligase = target: T2, VHL E3 ubiquitin ligase (Homo sapiens, UniProt P40337); assay: VHL E3 interaction assay with 35S-labelled tat-ODD IVTT products; type: binding; conditions: after modification by cell extracts
# T2 construct: expressed in transfected cells; host or cells: 786-0 cells stably transfected with pcDNA3 VHL.HA (whole extract, anti-HA immunoprecipitation)
# Description: Concordant with the ubiquitination assays discussed above NODD (HIF-1α 343-417) and CODD (HIF-1α 549-582) polypeptides, but not their corresponding proline mutants (HIF-1α 343-417/P402A and HIF-1α 549-582/P564G), bound to VHL E3 ubiquitin ligase after modification by cell extracts. The ^35S-methionine labelled recombinant polypeptides therefore interacted with VHL, supporting the results of the ubiquitination experiments discussed above. The interaction was enhanced by the presence of cell extracts which promote hydroxylation of the prolines at positions 402 and 564 ^19. In contrast, no binding occurred using peptides in which prolines were mutated.
# For VHL E3 interaction assays ^35S-methionine labelled HIF-1a substrates were prepared by transcription/translation using TnT7 rabbit reticulocyte lysate (Promega). 100 μM DFO was added to the reaction to suppress prolyl hydroxylase activity of the reticulocyte lysate. Substrate modification was achieved by incubation of HIF-1α translate with RCC4 cell lysate in the presence of ferrous chloride (100 μM). Interaction with VHL E3 was analysed as described previously ^21.
# U2OS and Hep3B cells = assay: HRE-dependent luciferase reporter assay after transient transfection of NODD/CODD plasmids; type: cell-based, human; conditions: normoxic conditions, 24 hours
# Description: Since normoxic HIFα degradation is saturable ^17 and depends on sub-regions within the ODD we tested whether peptides encoding the HIF-1α amino terminal ODD (NODD) and carboxy terminal ODD (CODD) ^21 could affect HIF activity as measured by hypoxia response element (HRE)-dependent reporter gene expression. Briefly, Degradation is prevented by the NODD and CODD polypeptides competing for prolyl hydroxylation and/or VHL binding, thereby blocking subsequent ubiquitination. We constructed plasmids encoding NODD (HIF-1-α aa 343-417) or CODD (HIF-1-α aa 549-582) linked to nuclear localisation sequences and a c-myc epitope tag. These plasmids were transiently co-transfected into U2OS and Hep3B cells with an HRE-dependent luciferase reporter plasmid. […]
# For reporter gene assays DNA fragments encoding HIF-1α amino acids 343-417, 380-417, 390-417, 390-410, 343-400, 530-95, 530-82, 549-82, 556-74 and 530-62 were generated by PCR using oligonucleotides containing 5′ SacII or 3′ AscI sites and inserted into a pCMV/myc/nuc (Invitrogen) derivative bearing these sites in frame with the NLS and epitope tag. […] To generate tet-operator dependent plasmids the open reading frames from the aa343-417 and aa549-82 constructs were subcloned into pUHD 10 ^34. […]
# T2 sequence (P40337 whole entry): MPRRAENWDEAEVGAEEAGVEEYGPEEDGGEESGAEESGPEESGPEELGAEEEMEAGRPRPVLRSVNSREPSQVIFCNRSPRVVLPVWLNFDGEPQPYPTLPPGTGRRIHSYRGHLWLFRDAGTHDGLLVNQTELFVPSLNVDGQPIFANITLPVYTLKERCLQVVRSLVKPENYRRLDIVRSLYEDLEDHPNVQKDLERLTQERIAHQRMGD
# T2 sequence (Q15370 whole entry partner): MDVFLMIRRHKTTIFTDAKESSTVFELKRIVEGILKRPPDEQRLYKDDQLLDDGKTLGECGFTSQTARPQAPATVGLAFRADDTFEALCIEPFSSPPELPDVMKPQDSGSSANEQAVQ
# T2 sequence (Q15369 whole entry partner): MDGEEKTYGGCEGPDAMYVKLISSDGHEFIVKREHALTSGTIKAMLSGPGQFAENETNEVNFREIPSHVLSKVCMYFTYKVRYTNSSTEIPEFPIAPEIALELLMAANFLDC
# T2 sequence (Q13617 whole entry partner): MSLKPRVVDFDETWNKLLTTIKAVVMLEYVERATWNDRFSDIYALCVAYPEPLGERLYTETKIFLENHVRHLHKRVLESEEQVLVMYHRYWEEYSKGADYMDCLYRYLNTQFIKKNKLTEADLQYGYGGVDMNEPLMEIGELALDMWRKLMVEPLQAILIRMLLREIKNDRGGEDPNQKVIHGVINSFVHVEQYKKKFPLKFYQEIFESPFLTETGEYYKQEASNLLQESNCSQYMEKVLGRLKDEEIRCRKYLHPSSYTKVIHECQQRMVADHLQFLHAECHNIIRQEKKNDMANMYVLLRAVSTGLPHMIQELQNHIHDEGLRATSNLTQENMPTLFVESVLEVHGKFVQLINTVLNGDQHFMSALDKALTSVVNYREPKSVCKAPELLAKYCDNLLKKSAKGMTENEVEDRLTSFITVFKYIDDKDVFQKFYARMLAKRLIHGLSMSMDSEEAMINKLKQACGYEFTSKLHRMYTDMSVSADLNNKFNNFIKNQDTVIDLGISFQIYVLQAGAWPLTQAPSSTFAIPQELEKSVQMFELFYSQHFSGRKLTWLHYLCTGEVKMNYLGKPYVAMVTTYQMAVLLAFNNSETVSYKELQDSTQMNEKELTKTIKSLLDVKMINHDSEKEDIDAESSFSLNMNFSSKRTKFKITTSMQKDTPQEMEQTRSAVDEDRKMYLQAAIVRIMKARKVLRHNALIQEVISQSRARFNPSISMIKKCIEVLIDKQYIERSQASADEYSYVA
# T2 sequence (P62877 whole entry partner): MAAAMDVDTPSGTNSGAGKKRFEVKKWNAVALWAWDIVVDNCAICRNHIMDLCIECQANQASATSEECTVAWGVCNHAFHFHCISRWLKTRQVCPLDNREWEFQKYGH
# T1 sequence (G5EBV0 whole entry): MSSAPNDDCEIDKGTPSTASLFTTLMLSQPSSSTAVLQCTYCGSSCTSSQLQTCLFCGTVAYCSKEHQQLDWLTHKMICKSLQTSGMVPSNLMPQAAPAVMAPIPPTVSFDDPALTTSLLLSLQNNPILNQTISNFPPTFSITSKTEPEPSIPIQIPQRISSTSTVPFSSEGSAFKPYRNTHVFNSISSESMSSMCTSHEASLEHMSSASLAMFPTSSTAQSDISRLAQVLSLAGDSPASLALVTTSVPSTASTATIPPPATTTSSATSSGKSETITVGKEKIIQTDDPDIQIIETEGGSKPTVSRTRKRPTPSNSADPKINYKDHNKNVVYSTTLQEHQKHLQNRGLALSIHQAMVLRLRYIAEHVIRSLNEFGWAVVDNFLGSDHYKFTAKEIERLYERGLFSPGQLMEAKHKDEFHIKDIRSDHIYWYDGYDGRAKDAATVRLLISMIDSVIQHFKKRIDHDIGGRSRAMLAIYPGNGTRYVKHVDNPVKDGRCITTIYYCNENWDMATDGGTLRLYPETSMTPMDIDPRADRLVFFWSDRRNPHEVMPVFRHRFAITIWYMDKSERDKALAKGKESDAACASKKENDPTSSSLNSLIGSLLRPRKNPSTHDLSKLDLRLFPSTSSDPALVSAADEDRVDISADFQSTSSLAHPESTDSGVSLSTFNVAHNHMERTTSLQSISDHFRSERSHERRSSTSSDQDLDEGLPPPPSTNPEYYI
molecule,measurement,setting,value
C[C@H](NC(=O)C(=O)O)C(=O)O [N-oxalyl-2S-alanine],inhibition of HIF hydroxylase / HPH,[1],act as inhibitors
same,inhibition of HIF hydroxylase / HPH,[1]; listed as (S) oxaloalanine,preferred inhibitor
same,"inhibitory activity on HIF-1α modification, comparison of enantiomers","[2]; 0-2000 μM, RCC4 cell extract",higher inhibitory activity
same,inhibition of worm extract activity promoting HIF-1/HA.VHL-1 interaction,[3],strongly inhibited activity
O=C(O)CNC(=O)CCS [N-(Mercaptopropionyl)glycine],inhibition of HIF hydroxylase / HPH,[1],inhibitors of HPH
same,inhibition of clavaminate synthase,clavaminate synthase,not an inhibitor
same,pVHL binding after treatment with cell extract in the presence of inhibitor,[2]; 1 mM,strong binding of pVHL
same,pVHL binding after treatment with cell extract in the presence of inhibitor,[2]; 5 mM,reduced the amount of pVHL binding
"NODD: HIF-1α amino terminal ODD polypeptide (aa 343-417) with nuclear localisation sequences and c-myc tag, plasmid expressed (protein, UniProt Q16665 343-417, looked up, fragment, NLS and c-myc tag) SGIIQHDLIFSLQQTECVLKPVESSDMKMTQLFTKVESEDTSSLFDKLKKEPDALTLLAPAAGDTIISLDFGSND",Maximal HIF-1α level relative to hypoxic or DFO treatment,U2OS cells,about 20%
same,binding to VHL E3 ubiquitin ligase,VHL E3 ubiquitin ligase,bound
same,HRE-dependent relative luciferase activity,U2OS and Hep3B cells,increased relative luciferase activity
